As a reminder, the IC50 is the concentration that inhibits the measured activity by half. A lower IC50 goes with greater potency in that assay.

Experimental findings from patent publication US9480712B2, “Biomedical composition” (INDUSTRIAL TECHNOLOGY RESEARCH INSTITUTE, priority 2013, dated 2016) are described below.

In one series the test system is U87MC cells. As to the kind of experiment: Cytotoxicity analysis (MTT). The format is cell-based. The conditions noted are these: Homo sapiens, U-87 MG, U87 cells, 48 hours.
The subject of series [1] is HT-29 cells, human colon adenocarcinoma cell line. As to the kind of experiment: Tumor growth inhibition in nude mice implanted with HT-29 cells. The format is in vivo. Conditions: 2 mg Pt/kg, tail vein, twice a week, 6 doses; day 14 to day 42. As to the method: HT-29 cells, human colon adenocarcinoma cell line, were implanted into the backs of nude mice. After the size of the tumor reached 100-200 mm^3, the mice were administered hyaluronic acid derivative/DACHPt complex nano-carriers formed by Formulation PtHC604 (2 mg Pt/kg), oxaliplatin (2 mg Pt/kg) or 10% sucrose through tail vein injections twice a week, for a total of 6 doses. The size changes of the tumors were measured, regularly, and tumor growth inhibition (TGI) rate was calculated. Calculation formula is as follows: Tumor growth inhibition (TGI) (%)=[1−(Δ Tumor volume for drug treatment group/Δ Tumor volume for vehicle treatment group)]×100

Series [2] in a line: Concentration of Pt in rat plasma by ICP-AES, pharmacokinetic parameters. The format is in vivo, rats. The conditions noted are these: 0.5 mg/rat. As to the method: The rats were grouped, and 0.5 mg/rat oxaliplatin, Formulations PtHC101, PtHC305 and PtHC603, were respectively administered. After that, at different time points the blood samples were sampled from the rats, the concentrations of Pt in the plasma were analyzed by inductively coupled plasma with atomic emission spectroscopy (ICP-AES), and the original drug concentration in blood (CO), half-life (T ½), area under curve (AUC), volume of distribution (Vz), and clearance (Cl) of each formulation were calculated.

Method for U87MC cells: U87 cells were inoculated in a 96-well culture plate with a density of 1×10^4 cells/well, and cultured in a 37° C., 5% CO2 incubator for 1 day. […] Next, the old medium was removed from the culture plate and the culture plate was washed with medium three times. After the medium was removed from the culture plate, 100 μL of 0.5 mg/mL MTT reagent was added to the plate, and the culture plate was incubated at 37° C. for 4 hours. Then, the old medium was removed and 100 μL of 0.1 N HCl/isopropanol was added to the culture plate to dissolve the precipitate. Finally, the culture plate was placed in a ELISA reader to determine the absorbance at wavelength 570 nm, and the absorbance was converted into cell viability based on the following formula: Cell viability (%)=Intensity of sample/Intensity of control×100%.

Consider `COc1cccc2c1C(=O)c1c(O)c3c(c(O)c1C2=O)C[C@@](O)(C(=O)CO)C[C@@H]3O[C@H]1C[C@H](N)[C@H](O)[C@H](C)O1` [Doxorubicin, doxorubicin], for which, in the series on U87MC cells, 100 nM corresponded to half-maximal inhibition (IC50).

As to `O=C1[O][Pt]2([NH][C@@H]3CCCC[C@H]3[NH]2)[O]C1=O` [Oxaliplatin, oxaliplatin], the “tumor growth inhibition (TGI) rate” value in series [1] was determined as 42±8%. Moreover, in series [2], the AUClast came to 4202.6 ± 1280.2 ng·h/mL, the C0 was 6317.9 ± 4430.9 ng/mL, the Cl_pred was 3.695 ± 1.13 mL/min/kg and the HL_Lambda_z was found to be 8.2 ± 1.1 h. Besides, the Vz_pred in series [2] amounted to 2.6208 ± 0.8685 L/kg.
